Results published in patent publication US11426473B2, “Nitrogen-containing compound or salt thereof, or metal complex thereof” (FUJIFILM Corporation, priority 2013, dated 2022).
Blank lines part the entries; values can stand above or below the molecule they belong to.

What was measured:
[1] = system: T98G cell (human glioblastoma) subcutaneous tumor; assay: Treatment experiment of subcutaneously T98G-transplanted model using [90Y]-(A8); format: in vivo, mouse; settings: Dose 11.1 MBa, 1 dose
Description: (§1) U87MG cells were subcutaneously transplanted at 1×10^7 cells/mouse to the right flank of Balb/c Slc-nu/nu (SLC Japan, Inc., male, 6 weeks old). After 2 weeks, mice whose tumors became 100 to 500 mm^3 were grouped. Phosphate-buffered saline (PBS) or the radiolabeled compound [90Y]-(P2) was administered to the tail veins of the mice, and their tumor volumes were measured. When the tumor volumes of the mice in the PBS group exceeded 2,000 mm^3, which is a humanistic endpoint, the antitumor effect was evaluated. The evaluation values were the rate of inhibition of tumor growth ((1−(Average tumor volume of the compound administration group−Average tumor volume of the compound administration group before administration)/(Average tumor volume of the PBS group−Average tumor volume of the PBS group before administration))×100 (provided that the rate of inhibition exceeding 100% was indicated as 100%)) and the number of individuals having a tumor volume equal to or smaller than that at the start of the experiment (the number of individuals having tumor regression).
(§2) A mixture of a T98G cell suspension (human glioblastoma, 1×10^7 cells) and Matrigel (Becton, Dickinson and Company) in equal amounts was subcutaneously transplanted to the right flank of Balb/cAJcl-nu/nu (CLEA Japan, Inc., female, 6 weeks old). After 90 days, the mice were grouped when their tumors BECAME 100 to 400 mm^3. Phosphate-buffered saline (PBS) or the radiolabeled compound [^90Y]-(A8) was administered to the tail veins of the mice, and their tumor volumes were measured. The evaluation values were calculated in the same way as in Test Example 8 to evaluate the antitumor effect.

[2] = system: U87MG cells subcutaneous tumor; assay: Treatment experiment of subcutaneously U87MG-transplanted model using [90Y]-(A8); format: in vivo, mouse; settings: 1 dose; for Rate of inhibition: 12 days after administration, above 100% indicated as 100%; for Tumor volume 12 days after administration / Tumor volume At start of administration: n 10, Mean + SD; for Tumor volume At start of administration: baseline; for The number of individuals having tumor regression: of n 10
Description: as §1
U87MG cells were subcutaneously transplanted at 1×10^7 cells/mouse to the right flank of Balb/cAJcl-nu/nu (CLEA Japan, Inc., male, 6 weeks old). After 2 weeks, mice whose tumors became 100 to 500 mm^3 were grouped. Phosphate-buffered saline (PBS) or the radiolabeled compound [^90Y]-(A8) was administered to the tail veins of the mice, and their tumor volumes were measured. The evaluation values were calculated in the same way as in Test Example 8 to evaluate the antitumor effect.

[3] = system: U87MG cells subcutaneous tumor; assay: Treatment experiment of subcutaneously U87MG-transplanted model using [90Y]-(P2); format: in vivo, mouse; settings: 1 dose; for Rate of inhibition: 16 days after administration, above 100% indicated as 100%; for Tumor volume 16 days after administration / Tumor volume At start of administration: n 8, Mean ± SD; for Tumor volume At start of administration: baseline; for The number of individuals having tumor regression: of n 8
Description: as §1

[4] = system: T98G cell (human glioblastoma) subcutaneous tumor; assay: Treatment experiment of subcutaneously T98G-transplanted model using [90Y]-(P2); format: in vivo, mouse; settings: 1 dose; for Rate of inhibition: 13 days after administration, above 100% indicated as 100%; for Tumor volume 13 days after administration / Tumor volume At start of administration: n 6, Mean ± SD; for Tumor volume At start of administration: baseline; for The number of individuals having tumor regression: of n 6
Description: as §1
as §2, with “Balb/c Slc-nu/nu (SLC” for “Balb/cAJcl-nu/nu (CLEA”, “male,” for “female,”, “77” for “90”, “became 300” for “BECAME 100”, “1,200” for “400”, “[^90Y]-(P2)” for “[^90Y]-(A8)”

[5] = Radiochemical purity after standing at room temperature; format: physicochemical; settings: immediately after preparation and after standing at room temperature for 24 hours
Description: To a mixed solution of compound (P2) (8.5 μg) and a 0.2 mol/L sodium acetate buffer solution (pH 4.0) (1.5 mL), a [^111In] indium chloride solution (80 MBq, 100 μL) was added. The mixture was heated at 100° C. for 15 minutes and then left at room temperature for 5 minutes to obtain radiolabeled compound [^111In]-(P2). […] Its radiochemical purity was 95% or more both immediately after preparation and after standing at room temperature for 24 hours.
To a mixed solution of compound (P2) (79 μg), gentisic acid (1.8 mg), a 0.6 mol/L sodium acetate buffer solution (pH 4.0, 120 μL), and a 0.4 mol/L aqueous sodium hydroxide solution (24 μL), a [^90Y] yttrium chloride solution (700 MBq, 240 μL) was added. The mixture was heated at 100° C. for 20 minutes and then left at room temperature for 5 minutes to obtain radiolabeled compound [^90Y]-(P2). […] Its radiochemical purity was 95% or more both immediately after preparation and after standing at room temperature for 24 hours.
To a mixed solution of compound (P2) ([…]) and a 0.2 mol/L sodium acetate buffer solution (pH 4.0, 219 μL), a [^64Cu] copper chloride solution (pH 5, 35 MBq, 55 μL) was added. The mixture was heated at 100° C. for 15 minutes and then left at room temperature for 5 minutes to obtain radiolabeled compound [^64Cu]-(P2). […] Its radiochemical purity was 90% or more both immediately after preparation and after standing at room temperature for 22 hours.
To a mixed solution of compound (Aa7) (4.2 μg), gentisic acid (1 mg), and a 0.2 mol/L sodium acetate buffer solution (pH 4.0) (5.0 μL), [^64Cu] copper chloride in a 0.2 mol/L sodium acetate buffer solution (pH 4.0) (40 MBq, 155 μL) was added. The mixture was heated at 100° C. for 15 minutes and then left at room temperature for 5 minutes to obtain radiolabeled compound [^64Cu]-(Aa7). […] Its radiochemical purity was 90% or more both immediately after preparation and after standing at room temperature for 24 hours.

[6] = Absorbed doses in each organ in humans calculated with OLINDA/EXM 1.0 from monkey organ distribution; format: in vivo; settings: calculated with OLINDA/EXM 1.0 from monkey imaging with [111In]-(P2)
Description: Blood kinetic parameters were calculated with OLINDA/EXM 1.0 from the blood concentration of radioactivity by blood collection over time from a cynomolgus monkey using [^111In]-(P2). Also, absorbed doses in each organ in the case of administration to humans were calculated with OLINDA/EXM 1.0 from organ distribution by imaging using [^111In]-(P2). The radiolabeled compound [^111In]-(P2) (98 MBq/[…]) was administered to a cynomolgus monkey (Hamri Co., Ltd., male, 3 years old, 3.4 kg) under anesthesia. After the administration, blood collection and imaging with a gamma camera were performed over time. The blood collection was carried out 10 minutes, 30 minutes, 60 minutes, 2 hours, 4 hours, 5 hours, 6 hours, 24 hours, 48 hours, 72 hours, and 144 hours after administration. The imaging was carried out 1, 2, 4, 6, 24, 48, 72, and 144 hours after administration with a gamma camera (Symbia, Siemens AG) to take planar images. The anesthesia was carried out using 20 mg/kg ketamine before administration of [^111In]-(P2) and maintained by inhalation anesthesia (2 to 3% isoflurane, 5 to 8 L/min) until the completion of the imaging at 6 hours after administration. At or after 24 hours after administration, blood collection and imaging were performed by the introduction of 20 mg/kg ketamine and 2 mg/kg xylazine. […] The blood kinetic parameters are shown below.

[7] = system: U87MG cells subcutaneous tumor; assay: Concentration of radioactivity in tumor of labeled compounds (Test Example 4); format: in vivo, mouse; settings: tail vein, 111In 740 kBq, 64Cu and 90Y 500 kBq
Description: U87MG cells were subcutaneously transplanted at 1×10^7 cells/mouse to the right flank of Balb/cAJcl-nu/nu (CLEA Japan, Inc. or Japan SLC, Inc., 6 to 9 weeks old). After 2 to 3 weeks, the mice were divided into groups each involving 3 individuals per point in time when their tumors became 200 to 500 mm^3. The ^111In-labeled compound (740 kBq) was administered to the tail veins of the mice.
After a given time, the animals were sacrificed to extract their tumors. The weights of the tumors were measured, and the radioactivity was measured using a gamma counter to calculate the concentration of radioactivity in the tumors (% ID/g). In the same way as above, the concentration of radioactivity in the tumors (% ID/g) was calculated for the ^64Cu-labeled compound (500 kBq) and the ^90Y-labeled compound (500 kBq).

SMILES: Cc1cc(OCCCC(=O)NCCNC(=O)C(CS(=O)(=O)O)NC(=O)C(CS(=O)(=O)O)NC(=O)CN2CCN(CC(=O)[O-])CCN(CC(=O)[O-])CCN(CC(=O)[O-])CC2)cc(C)c1S(=O)(=O)NC(CNC(=O)c1ccc(CCc2ccc3c(n2)NCCC3)cc1)C(=O)O.[90Y+3] (stereo not drawn) [[^90Y]-(A8)]
Rate of inhibition ([1]; 22 days after administration, above 100% indicated as 100%): 100%
Tumor volume 22 days after administration ([1]; n 8, Mean ± SD): 123 ± 60 mm^3
Tumor volume At start of administration ([1]; n 8, Mean ± SD, baseline): 201 ± 75 mm^3
The number of individuals having tumor regression ([1]; of n 8): 6
Rate of inhibition ([2]; Dose 5.55 MBa): 69%
Tumor volume 12 days after administration ([2]; Dose 5.55 MBa): 759 ± 344 mm^3
Tumor volume At start of administration ([2]; Dose 5.55 MBa): 239 ± 89 mm^3
The number of individuals having tumor regression ([2]; Dose 5.55 MBa): 0
Rate of inhibition ([2]; Dose 11.1 MBa): 100%
Tumor volume 12 days after administration ([2]; Dose 11.1 MBa): 199 ± 88 mm^3
Tumor volume At start of administration ([2]; Dose 11.1 MBa): 243 ± 101 mm^3
The number of individuals having tumor regression ([2]; Dose 11.1 MBa): 7
Rate of inhibition ([2]; Dose 14.8 MBa): 100%
Tumor volume 12 days after administration ([2]; Dose 14.8 MBa): 251 ± 112 mm^3
Tumor volume At start of administration ([2]; Dose 14.8 MBa): 251 ± 110 mm^3
The number of individuals having tumor regression ([2]; Dose 14.8 MBa): 6

radiochemical purity after standing [5]: ≥ 95%
Absorbed dose, Brain [6]: 1.96 mGy/MBq
Absorbed dose, Kidney [6]: 14.70 mGy/MBq
Absorbed dose, Liver [6]: 1.12 mGy/MBq
Absorbed dose, Lung [6]: 1.35 mGy/MBq
Absorbed dose, Red bone marrow [6]: 0.06 mGy/MBq
Absorbed dose, Small intestine [6]: 0.87 mGy/MBq
Absorbed dose, Whole body [6]: 0.27 mGy/MBq
Concentration of radioactivity in tumor ([7]; 4 hours later): 12.52 % ID/g
Concentration of radioactivity in tumor ([7]; 24 hours later): 15.29 % ID/g
SMILES: Cc1cc(OCCCC(=O)NCCNC(=O)[C@H](CS(=O)(=O)O)NC(=O)CN2CCN(CC(=O)[O-])CCN(CC(=O)[O-])CCN(CC(=O)[O-])CC2)cc(C)c1S(=O)(=O)N[C@@H](CNC(=O)CCCCc1ccc2c(n1)NCCC2)C(=O)O.[90Y+3] [[^90Y]-(P2)]
Rate of inhibition ([3]; Dose 14.8 MBa): 95%
Tumor volume 16 days after administration ([3]; Dose 14.8 MBa): 429 ± 188 mm^3
Tumor volume At start of administration ([3]; Dose 14.8 MBa): 351 ± 72 mm^3
The number of individuals having tumor regression ([3]; Dose 14.8 MBa): 2
Rate of inhibition ([3]; Dose 22.2 MBa): 97%
Tumor volume 16 days after administration ([3]; Dose 22.2 MBa): 386 ± 142 mm^3
Tumor volume At start of administration ([3]; Dose 22.2 MBa): 343 ± 88 mm^3
The number of individuals having tumor regression ([3]; Dose 22.2 MBa): 2
Rate of inhibition ([4]; Dose 22.2 MBa): 82%
Tumor volume 13 days after administration ([4]; Dose 22.2 MBa): 882 ± 399 mm^3
Tumor volume At start of administration ([4]; Dose 22.2 MBa): 755 ± 293 mm^3
The number of individuals having tumor regression ([4]; Dose 22.2 MBa): 1
Rate of inhibition ([4]; Dose 29.6 MBa): 97%
Tumor volume 13 days after administration ([4]; Dose 29.6 MBa): 755 ± 313 mm^3
Tumor volume At start of administration ([4]; Dose 29.6 MBa): 736 ± 264 mm^3
The number of individuals having tumor regression ([4]; Dose 29.6 MBa): 3
